In article PMC5882690, “Mechanical characteristics of beta sheet-forming peptide hydrogels are dependent on peptide sequence, concentration and buffer composition” (Royal Society Open Science, 2018):
Where a SMILES comes first, the peptide text is derived from it.

How the values were obtained:
[1] = literature, cited from earlier work
Text: The topographical structure of SAP hydrogels is important for the three-dimensional arrangement of cells within scaffolds. Zhang et al. state that the fibres of SAP hydrogels resemble the nanometre scale of natural polymer networks and thus allow three-dimensional cell growth. […] (figure 1). […] Moreover, they observed the formation fibre entanglements with diameters of 30 nm. The phenomenon of fibril clustering was also reported by Zhang et al. for the peptides KFE8 and KLD12, characterized by a typical single fibre width of 7 nm and thicker diameters for the bundles of fibres.

[2] = target: T1, human neutrophil elastase (Homo sapiens, UniProt P08246); assay: SAP hydrogel degradation by human neutrophil elastase; format: in vitro ADME; conditions: human neutrophil elastase 100 µg ml^-1 (86 units ml^-1) in PBS, 37°C, 5% CO2, 20 mg ml^-1 P11-4, 15 mg ml^-1 others, Qubit Protein Assay, mean ± SD, n = 3
T1 construct: purchased Innovative Research, USA
T1 sequence (P08246 30-267): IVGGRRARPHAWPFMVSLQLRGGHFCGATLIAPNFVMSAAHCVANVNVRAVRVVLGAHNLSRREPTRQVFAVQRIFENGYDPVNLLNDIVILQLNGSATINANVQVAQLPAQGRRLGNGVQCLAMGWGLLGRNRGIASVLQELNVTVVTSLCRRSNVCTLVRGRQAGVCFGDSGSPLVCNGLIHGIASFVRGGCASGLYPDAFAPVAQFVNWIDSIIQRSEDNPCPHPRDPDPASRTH
Method: SAP hydrogel dissolution and degradation properties of the peptides in the presence and absence of neutrophilic elastase and microorganisms were measured by determining the peptide content of the supernatant. Therefore, SAPs were assembled in PBS at concentrations of 20 mg ml^−1 for P11-4 and 15 mg ml^−1 for P11-8, P11-13/14 and P11-28/29. The assay was performed in a 96-well plate with gel volumes of 100 µl well^−1. 86 units ml^−1 elastase (Innovative Research, USA) (100 µg ml^−1) were added to the assembled peptides in PBS solution. After 24 h incubation at 37°C and 5% CO2, 10 µl of the supernatant was sterilely removed after 24 and 168 h and measured indirectly by monomeric peptide concentration in the supernatant using the Qubit® Protein Assay (Q33211; Thermo Fisher; fluorescence at 485/590 nm) and transferred back for the remainder of the experiment allowing peptide hydrogel degradation measurement without disturbing the hydrogel to buffer fluid balance. The measurements are based on the fact that degraded peptides cause disassembly of the fibrils, as assembly rules are no longer given, resulting in an increase in monomeric SAP in solution. SAP concentrations were calculated based on respective peptide standard curves. For data analysis, SAP concentrations measured in the supernatant were calculated as a percentage of the specific starting concentrations of each peptide system. Statistical analysis was done using a two-way ANOVA followed by Sidak's multiple comparison test.

[3] = Oscillatory time sweep (hydrogel stiffness at t = 100 min, gelation speed); format: physicochemical; conditions: for Stiffness (storage modulus G′ at t = 100 min) / Speed (gelation speed, dG′/dt 5–10 min): time sweep, mean ± SD
Method: Dynamic oscillatory amplitude sweeps up to 150% strain were performed at 37°C using an Anton Paar MCR301 rheometer equipped with a 10 mm diameter stainless steel parallel plate geometry at a 0.9 mm measuring gap. The amplitude sweep tests were performed to measure storage moduli (G′) within the linear viscoelastic region. Calculations of the gel breaking points (yield points) were performed with MATLAB depending on the different peptide concentrations. Therefore, the yield strain was defined as the point where G′ is less than 95% of its original value. Oscillatory time sweep experiments were performed to study the gelation speed and hydrogel stiffness. Time sweeps up to 150 min measuring time using a frequency of 1 rad s^−1 and amplitude gamma of 0.05% were used. SAP hydrogel stiffness was determined after the equilibrium of the storage modulus (G′) was reached (t = 100 min). To determine the gelation speed, the slope of increasing storage modulus over time was calculated in the interval from t = 5 to 10 min after placing peptide solutions onto the rheometer.
To study the influence of divalent ions and different media on SAP hydrogel stiffness, gelation speed and gel breaking points (yield points), SAPs were prepared at a concentration of 15 mg ml^−1 in the different media, Tris–NaCl, Tris–MgSO4, DMEM or artificial saliva, according to table 1. All experiments were done at least in duplicate. Statistical evaluation was performed with GRAPHPAD PRISM version 6.0 based on a one-way ANOVA test followed by Tukey's multiple comparison test.

[4] = 15 mg ml^-1, artificial saliva, n = 3
[5] = 15 mg ml^-1, serum-free DMEM, n = 3
[6] = artificial saliva versus DMEM, 15 mg ml^-1

CC(=O)N[C@@H](CCC(N)=O)C(=O)N[C@@H](CCC(N)=O)C(=O)N[C@@H](CCCNC(=N)N)C(=O)N[C@@H](Cc1ccccc1)C(=O)N[C@@H](CCC(=O)O)C(=O)N[C@@H](Cc1c[nH]c2ccccc12)C(=O)N[C@@H](CCC(=O)O)C(=O)N[C@@H](Cc1ccccc1)C(=O)N[C@@H](CCC(=O)O)C(=O)N[C@@H](CCC(N)=O)C(=O)N[C@@H](CCC(N)=O)C(N)=O [P11-4, CH3CO-QQRFEWEFEQQ-NH2] (Ac-QQRFEWEFEQQ-NH2)
fibril width ([1]; P11-4 and P11-8 prepared in NaCl): 14 nm | diameter of fibre entanglements ([1]; prepared in NaCl): 30 nm | relative peptide amount in supernatant (% of peptide starting concentration) ([2]; 1 d): 14.7± 2.8% | relative peptide amount in supernatant (% of peptide starting concentration) ([2]; 7 d): 12.8± 5.8% | Stiffness (storage modulus G′ at t = 100 min) ([3]; 15 mg ml^-1, Tris–MgSO4, 1 rad s^-1, 37°C, n = 3): 9.5±2.7 kPa | Speed (gelation speed, dG′/dt 5–10 min) ([3]; 15 mg ml^-1, Tris–MgSO4): 0.8±0.1 G`/min | Stiffness (storage modulus G′ at t = 100 min) ([3]; 15 mg ml^-1, Tris–NaCl, 1 rad s^-1, 37°C, n = 3): 5.0± 2.1 kPa | Speed (gelation speed, dG′/dt 5–10 min) ([3]; 15 mg ml^-1, Tris–NaCl): 1.6± 0.6 G`/min | Speed (gelation speed, dG′/dt 5–10 min) [3, 4]: 2.3 ± 0.9 G`/min | Stiffness (storage modulus G′ at t = 100 min) [3, 4]: 4.9 ± 1.6 kPa | Speed (gelation speed, dG′/dt 5–10 min) [3, 5]: 1.3 ± 0.4 G`/min | Stiffness (storage modulus G′ at t = 100 min) [3, 5]: 0.4± 0.01 kPa | factor of increase of gelation (speed) in artificial saliva [3, 6]: 1.8 | factor of increase of hydrogel stiffness if prepared with artificial saliva [3, 6]: 12
